Legend:
[1] = test system: Adult female cats; assay: Transvesical cystometrograms and periurethral EMG in anesthetized cats, acetic acid infusion
Procedure: Adult female cats were anesthetized with alpha chloralose (50-75 mg/kg i.v.) One catheter was inserted into the carotid artery for measuring systemic blood pressure and heart rate. A second catheter was inserted in the radial vein for administering drugs. Following a midline laparotomy, the bladder was cannulated through the dome to allow infusion of fluids and recording of intravesical pressure. The urethra remained patent to allow expulsion of fluids during reflex micturition.
Transvesical cystometrograms (CMGs) were recorded by emptying the bladder, beginning infusion (0.5 ml/min) with saline, and noting the volume at which fluid release and bladder contraction occurred (i.e. micturition). This volume is defined as bladder capacity. EMG activity was recorded from the periurethral musculature with bipolar hook electrodes placed within 0.5 cm of the urethral meatus via an intravaginal approach. After establishing bladder capacity and EMG activity under conditions of saline infusion, the infusion cannula was switched to infuse 0.5% acetic acid solution and cystometry repeated.
Following cystometry, the bladder was allowed to continuously fill, which produced rhythmic bladder contractions accompanied by fluid release. During this time of rhythmic bladder activity, vehicle or drug was administered. Within 5 minutes, the bladder was emptied; another CMG was performed, and bladder capacity and EMG activity were again measured. The bladder was then continuously filled to produce rhythmic contractions with fluid release, and the frequency of these rhythmic contractions was measured over a fifteen minute period to record drug effects on contraction frequency. This procedure was repeated with increasing doses of drug to produce a cumulative dose response curve.
All other drugs were dissolved in saline.

[2] = target: T1, 5-HT1E (Homo sapiens, UniProt P28566); assay: Binding affinity at cloned human serotonin receptors
T1 construct: expressed in transfected cells

[3] = target: T2, 5-HT1D (Homo sapiens, UniProt P28221); assay: Functional data in cloned human serotonin receptors; format: biochemical
T2 construct: expressed in transfected cells

[4] = target: T3, 5-HT1F (Homo sapiens, UniProt P30939); assay: as above; format: biochemical
T3 construct: expressed in transfected cells
T3 sequence (P30939 1-366): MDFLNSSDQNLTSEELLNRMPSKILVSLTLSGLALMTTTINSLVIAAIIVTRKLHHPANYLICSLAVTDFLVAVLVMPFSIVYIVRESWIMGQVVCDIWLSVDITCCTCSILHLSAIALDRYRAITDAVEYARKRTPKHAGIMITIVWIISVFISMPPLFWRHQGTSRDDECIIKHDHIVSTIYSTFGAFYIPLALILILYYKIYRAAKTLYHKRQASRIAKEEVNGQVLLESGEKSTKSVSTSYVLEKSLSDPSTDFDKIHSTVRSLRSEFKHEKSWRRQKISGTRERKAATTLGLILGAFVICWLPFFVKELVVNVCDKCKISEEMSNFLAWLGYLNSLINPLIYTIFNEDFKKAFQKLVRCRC

[5] = target: T4, 5-HT1A (Homo sapiens, UniProt P08908); assay: as above; format: biochemical
T4 construct: expressed in transfected cells
T4 sequence (P08908 1-422): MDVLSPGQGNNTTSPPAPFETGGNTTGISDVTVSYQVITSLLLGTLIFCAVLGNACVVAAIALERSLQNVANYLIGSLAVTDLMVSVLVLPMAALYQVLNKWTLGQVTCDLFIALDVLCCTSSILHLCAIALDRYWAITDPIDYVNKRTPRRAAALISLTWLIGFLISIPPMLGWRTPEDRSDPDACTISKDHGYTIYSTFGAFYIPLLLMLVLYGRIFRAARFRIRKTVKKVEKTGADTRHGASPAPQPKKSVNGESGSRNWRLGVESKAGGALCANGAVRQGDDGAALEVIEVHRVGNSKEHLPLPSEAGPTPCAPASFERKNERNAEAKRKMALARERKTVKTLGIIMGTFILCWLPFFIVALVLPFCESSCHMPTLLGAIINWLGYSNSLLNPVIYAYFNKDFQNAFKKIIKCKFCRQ

[6] = target: T5, 5-HT1B (Homo sapiens, UniProt P28222); assay: Binding affinity at cloned human serotonin receptors
T5 construct: expressed in transfected cells
T5 sequence (P28222 whole entry): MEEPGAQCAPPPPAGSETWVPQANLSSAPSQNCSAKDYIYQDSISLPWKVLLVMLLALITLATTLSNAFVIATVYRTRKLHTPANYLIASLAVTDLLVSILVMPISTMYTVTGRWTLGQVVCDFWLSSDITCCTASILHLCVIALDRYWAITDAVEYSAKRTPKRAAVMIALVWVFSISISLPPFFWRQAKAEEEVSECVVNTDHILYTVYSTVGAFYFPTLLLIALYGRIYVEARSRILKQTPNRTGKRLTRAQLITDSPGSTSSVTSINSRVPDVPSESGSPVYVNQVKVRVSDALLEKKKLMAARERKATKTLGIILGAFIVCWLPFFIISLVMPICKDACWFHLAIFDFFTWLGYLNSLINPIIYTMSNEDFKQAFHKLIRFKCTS

[7] = target: T3, 5-HT1F; assay: as above
[8] = target: T6, 5-HT7 (Homo sapiens, UniProt P34969); assay: as above
T6 construct: expressed in transfected cells
T6 sequence (P34969 whole entry): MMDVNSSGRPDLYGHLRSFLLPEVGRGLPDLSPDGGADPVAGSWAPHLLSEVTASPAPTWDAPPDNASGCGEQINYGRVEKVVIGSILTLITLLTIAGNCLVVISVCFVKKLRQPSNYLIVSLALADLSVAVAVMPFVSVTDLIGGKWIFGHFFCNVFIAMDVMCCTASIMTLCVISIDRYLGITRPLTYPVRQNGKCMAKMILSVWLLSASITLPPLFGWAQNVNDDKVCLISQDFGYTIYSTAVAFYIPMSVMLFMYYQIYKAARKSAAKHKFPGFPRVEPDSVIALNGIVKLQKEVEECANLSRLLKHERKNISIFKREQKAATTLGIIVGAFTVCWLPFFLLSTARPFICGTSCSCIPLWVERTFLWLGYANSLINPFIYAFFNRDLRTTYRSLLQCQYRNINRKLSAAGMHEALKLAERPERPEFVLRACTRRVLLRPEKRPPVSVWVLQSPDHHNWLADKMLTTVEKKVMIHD

[9] = target: T5, 5-HT1B; assay: Functional data in cloned human serotonin receptors; format: biochemical
[10] = target: T2, 5-HT1D; assay: Binding affinity at cloned human serotonin receptors
[11] = target: T4, 5-HT1A; assay: as above
[12] = anesthetized cat, i.v., cumulative doses, acetic acid infusion
[13] = listed as compound of formula I
[14] = vs 1-(2-p-methanesulfonamidophenylethyl)-4-(m-trifluoromethylphenyl)piperazine

T2 sequence (P28221 whole entry): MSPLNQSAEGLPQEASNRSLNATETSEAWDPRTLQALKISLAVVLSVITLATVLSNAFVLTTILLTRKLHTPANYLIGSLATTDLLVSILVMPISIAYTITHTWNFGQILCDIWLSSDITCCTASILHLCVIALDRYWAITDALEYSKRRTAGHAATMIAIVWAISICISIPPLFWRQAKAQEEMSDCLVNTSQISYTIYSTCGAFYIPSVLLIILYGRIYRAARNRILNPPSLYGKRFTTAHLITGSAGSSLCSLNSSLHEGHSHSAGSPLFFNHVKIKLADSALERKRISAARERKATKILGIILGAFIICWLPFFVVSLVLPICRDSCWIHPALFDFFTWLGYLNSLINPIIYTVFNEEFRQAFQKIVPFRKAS
T1 sequence (P28566 whole entry): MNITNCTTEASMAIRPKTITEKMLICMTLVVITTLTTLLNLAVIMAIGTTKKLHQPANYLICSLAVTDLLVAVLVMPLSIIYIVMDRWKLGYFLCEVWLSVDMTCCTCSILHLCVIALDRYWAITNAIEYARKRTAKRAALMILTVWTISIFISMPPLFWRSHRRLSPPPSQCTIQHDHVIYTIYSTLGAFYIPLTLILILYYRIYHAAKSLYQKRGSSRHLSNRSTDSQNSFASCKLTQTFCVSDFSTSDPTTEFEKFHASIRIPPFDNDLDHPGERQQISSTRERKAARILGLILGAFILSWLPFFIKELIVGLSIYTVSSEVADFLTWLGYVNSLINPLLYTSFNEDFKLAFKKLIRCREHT

CS(=O)(=O)Nc1cccc(CCN2CCN(c3cccc(C(F)(F)F)c3)CC2)c1 [LY217101, 1-(2-m-methanesulfonamidophenylethyl)-4-(m-trifluoromethylphenyl)piperazine]
EMG activity ([1]; LY217101 given after WAY100635): no longer produces | bladder capacity ([1]; LY217101 given after WAY100635): increase | bradycardia ([1]; LY217101 given after WAY100635): no longer produces | frequency of micturition contractions ([1]; LY217101 given after WAY100635): continued to reduce | hypotension ([1]; LY217101 given after WAY100635): no longer produces | bradycardia ([1]; anesthetized cat, i.v.): induced | hypotension ([1]; anesthetized cat, i.v.): induced | bladder capacity [1, 12]: dose-dependent increases | external urethral sphincter (EUS) EMG activity [1, 12]: increase | frequency of micturition contractions [1, 12]: reduced | Ki [2]: 3880 nM | Emax [3]: 93.4% | functional character at 5-HT1D ([3]; listed as Formula 1): Agonist | functional character at 5-HT1D [3, 13]: agonist | Emax [4]: 95.5% | functional character at 5-HT1A ([5]; listed as Formula 1): Agonist | functional character at 5-HT1A [5, 13]: agonist | Ki [6]: 1.7 nM | fold higher affinity for the 5-HT1B receptor than the p-regioisomer [6, 14]: 56 fold | Ki [7]: 32.3 nM | Ki [8]: 104 nM | Emax [9]: 88.2% | functional character at 5-HT1B ([9]; listed as Formula 1): Agonist | functional character at 5-HT1B [9, 13]: agonist | Ki [10]: 1.2 nM | fold higher affinity for the 5-HT1D receptor than the p-regioisomer [10, 14]: 45 fold | Ki [11]: 0.95 nM

COc1ccccc1N1CCN(CCN(C(=O)C2CCCCC2)c2ccccn2)CC1 [WAY100635, reference compound]
reversal of hypotension, bradycardia, decrease in contraction frequency and increase in EMG activity induced by the compound of Formula I ([1]; anesthetized cat, WAY100635 given after compound of Formula I): partially reversed

COc1ccc(CNC(=O)/C=C/c2ccc3[nH]cc(CCN(C)C)c3c2)cc1 [GR46611, reference compound]
bladder capacity [1, 12]: dose-dependent increases | external urethral sphincter (EUS) EMG activity [1, 12]: increase | frequency of micturition contractions [1, 12]: reduced

COc1ccc(NC(=O)c2ccc(-c3ccc(-c4noc(C)n4)cc3C)cc2)cc1N1CCN(C)CC1 [GR127935, reference compound]
bladder capacity [1, 12]: dose-dependent increases | external urethral sphincter (EUS) EMG activity [1, 12]: increase | frequency of micturition contractions [1, 12]: reduced

CS(=O)(=O)Nc1ccc(CCN2CCN(c3cccc(C(F)(F)F)c3)CC2)cc1 [1-(2-p-methanesulfonamidophenylethyl)-4-(m-trifluoromethylphenyl)piperazine, reference compound]
% displacement, 5-HT1E ([2]; @ 1000 nM): 5% @ 1000 | Ki [6]: 9.49 nM | % displacement, 5-HT1F ([7]; @ 1000 nM): 14% @ 1000 | Ki [8]: 45 nM | Ki [10]: 55.3 nM | Ki [11]: 3.45 nM

CS(=O)(=O)Nc1cccc(CCN2CCN(c3cccc(C(F)(F)F)c3)CC2)c1.Cl
melting point: 198 to 199 °C

CN(C)CCc1c[nH]c2ccc(C[C@H]3COC(=O)N3)cc12 [zolmitriptan, reference compound]
bladder capacity [1, 12]: dose-dependent increases | external urethral sphincter (EUS) EMG activity [1, 12]: increase | frequency of micturition contractions [1, 12]: reduced

CS(=O)(=O)Nc1cccc(CCN2CCN(c3cccc(C(F)(F)F)c3)CC2)c1.O=C(O)C(=O)O
melting point: 164 °C

Reference: patent publication US6864262B2, “1-(2-m-methanesulfonamidophenylethyl)-4-(m-trifluoromethylphenyl) piperazine and pharmaceutically acceptable salts and solvents thereof” (Eli Lilly and Company, priority 2000, dated 2005)
